Test results taken from US20170128448A1, “COMBINATION THERAPY FOR CANCER” (Celgene Corporation, priority 2014, published 2017).

Key:
[1] = system: DLBCL cell lines (Oci-Ly10, WSU-DLCL2); experiment: 8-day cytotoxicity assay (cell titer glo), DLBCL lines; type: cell-based; settings: Compound A 200 nM for 8 days + obinutuzumab (GA101) 0 to 10,000 ng/mL last 24 hours
Description: (§1) In vitro combination efficacy studies were performed with Compound A and obinutuzumab (GA101). Two follicular (RL and DoHH2) and two diffuse large B cell lymphoma (DLBCL) (Oci-Ly10, WSU-DLCL2) cell lines were treated with either single agent Compound A (200 nM), single agent obinutuzumab (0 to 10,000 ng/mL) or in combination in 8-day cytotoxicity assays (cell titer glo). In both the single agent and combination studies, the cells were treated with Compound A for 8 days and with obinutuzumab treatment on the last 24 hours in the combination studies.

[2] = system: follicular lymphoma cell lines (RL and DoHH2); experiment: 8-day cytotoxicity assay (cell titer glo), follicular lymphoma lines; type: cell-based; settings: Compound A 200 nM for 8 days + obinutuzumab (GA101) 0 to 10,000 ng/mL last 24 hours; FL lines
Description: as §1

[3] = cited from earlier work
DLBCL cell lines = settings: lenalidomide with ibrutinib (Yang, 2012); cited from earlier work
IL-10 = experiment: Cytokine stimulation in LPS-stimulated hPBMC and human whole blood: IL-10; type: cell-based
Source text: (§2) TNF-α is an inflammatory cytokine produced by macrophages and monocytes during acute inflammation. TNF-α is responsible for a diverse range of signaling events within cells. TNF-α may play a pathological role in cancer. Without being limited by theory, one of the biological effects exerted by Compound A is the reduction of synthesis of TNF-α. Compound A enhances the degradation of TNF-α mRNA.

human NK cell = experiment: NK cell IFN-γ production in response to immobilized Ig-G and IL-2 stimulation; type: cell-based; settings: read-out: EC50, enhancement of NK cell IFN-γ production
Source text: Without being bound by a particular theory, Compound A is believed to enhance the human NK cell killing function, antibody-dependent cellular cytotoxicity (ADCC), in rituximab coated lymphoma cell lines.

T cells = experiment: T cell co-stimulation; type: cell-based; settings: under appropriate conditions
[4] = system: WSU-DLCL2 lymphoma xenograft; experiment: WSU-DLCL2 lymphoma xenograft model; type: in vivo; settings: for complete regressions, % of animals: WSU-DLCL2
Description: (§3) In combination with rituximab, Compound A at 3 and 30 mg/kg induced complete regressions in 60% and 90% of animals, respectively.

[5] = in vivo
Description: (§4) The first-in-human study of Compound A is being conducted in a broad tumor population including diverse solid tumors, lymphoma and MM. Part A of the study used a Compound A starting dose of 0.5 mg QD on a continuous dosing schedule. Using allometric scaling, this dose represented a dose ˜20-fold below the highest non-severely toxic dose (HNSTD) in primates based on preclinical toxicology studies. Part A dose escalation proceeded in 0.5 mg increments (0.5, 1.0, 1.5, 2.0, 2.5, 3.0, 3.5 mg) and established the nontolerated dose (NTD) at 3.5 mg QD and the MTD at 3.0 mg QD. […] In Part B, parallel expansion cohorts (14 to 20 subjects each) in 4 tumor indications (MM, NHL, HCC and gliomas) were subsequently enrolled at a dose of 3.0 mg QD. Given that subjects with CLL may be more sensitive to the side effects of immunomodulatory agents (IMiDs®) and other cereblon-binding agents, and the clinical safety, PK and pharmacodynamics data observed with Compound A to date, a lower Compound A starting dose of 0.25 mg QD was used in a CLL population.

[6] = First-in-human study of Compound A, Part A dose escalation; type: in vivo; settings: for dose limiting toxicities (DLT) observed: in vivo
Description: as §4

IL-1β = experiment: Cytokine inhibition in LPS-stimulated hPBMC and human whole blood: IL-1β; type: cell-based
Source text: as §2

[7] = system: panel of lymphoma and MM cell lines; experiment: Immunomodulatory and anti-proliferative activity against a panel of cell lines; type: cell-based
Description: (§5) A second consideration for the starting dose of Compound A is based on the relative in vitro potency between Compound A and lenalidomide and the relative human safety and tolerability of lenalidomide in CLL. […] Clinical exploration of lenalidomide in CLL has established 5 mg to be a tolerable starting dose.

human CLL cells = experiment: Primary cultures of human CLL cells; type: cell-based; settings: in 70% of samples tested
Description: as §5

TNF-α = experiment: Cytokine inhibition in LPS-stimulated hPBMC and human whole blood: TNF-α; type: cell-based
Source text: as §2

DoHH2 lymphoma xenograft = DoHH2 lymphoma xenograft model; type: in vivo
Description: as §3

[8] = continuous dosing, solid tumors, lymphoma and MM

## GA101: humanized type II monoclonal antibody that binds to CD20 and triggers destruction of B-cells
[1]
  combination effect on cytotoxicity: additive
[2]
  combination effect on cytotoxicity: synergistic

## Nc1cccc2c1CN(C1CCC(=O)NC1=O)C2=O (centres unmarked) [lenalidomide]
[3]; 21 of 28 day cycles, during the 7 day drug holidays (Chen, 2011)
  effect of intermittent dosing schedule in CLL: rebound lymphocytosis
[3]; CLL patients
  tolerable starting dose in CLL: 5 mg
DLBCL cell lines
  combination effect of lenalidomide and ibrutinib on killing of DLBCL cell lines: synergistically kill

## Cc1nc2cccc(N)c2c(=O)n1C1CCC(=O)NC1=O (centres unmarked) [Compound A, 3-(5-amino-2-methyl-4-oxo-4H-quinazolin-3-yl)-piperidine-2,6-dione]
IL-10
  effect on IL-10: stimulates
Human NK cell
  EC50: 1.5 nM
[1]
  combination effect on cytotoxicity: additive
T cells
  T cell co-stimulation, cell proliferation: increased cell proliferation in a dose dependent manner
[4]; Compound A 3 mg/kg in combination with rituximab
  complete regressions, % of animals: 60%
[4]; Compound A 30 mg/kg in combination with rituximab
  complete regressions, % of animals: 90%
[4]; WSU-DLCL2 study, Compound A single agent
  effect as single agent: minimal effects
[4]; WSU-DLCL2 xenograft, administered with rituximab
  tumor growth inhibition, administered with rituximab: dose-dependent tumor growth inhibition
[2]
  combination effect on cytotoxicity: synergistic
[5]
  starting dose relative to highest non-severely toxic dose (HNSTD) in primates, fold below: ~20 fold
[6]; [8]
  MTD: 3.0 mg QD
  nontolerated dose (NTD): 3.5 mg QD
[6]; human
  dose limiting toxicities (DLT) observed: Grade 3 fever and fatigue and Grade 3 muscle weakness
[6]
  dose limiting toxicities (DLT) observed: No DLTs
IL-1β
  inhibition of IL-1β: potently inhibits
[7]
  potency relative to lenalidomide, immunomodulatory and anti-proliferative activity: ~10 fold
Human CLL cells
  potency relative to lenalidomide: ~5 fold
TNF-α
  inhibition of TNF-α: markedly inhibits
DoHH2 lymphoma xenograft; Compound A single agent at 3 and 30 mg/kg
  tumor growth inhibition, single agent: modest dose-dependent tumor growth inhibition
DoHH2 lymphoma xenograft; in combination with rituximab
  tumor growth delay, combination with rituximab: significantly and dose-dependently delayed tumor growth

## C=CC(=O)N1CCC[C@@H](n2nc(-c3ccc(Oc4ccccc4)cc3)c3c(N)ncnc32)C1 [ibrutinib]
DLBCL cell lines
  combination effect of lenalidomide and ibrutinib on killing of DLBCL cell lines: synergistically kill
